Laboratory results published in the supplement of paper PMC10883282.

How the values were obtained:
Assay in all cases: standardised AUC of viability dose-response curve (72 h) (fraction (0-1)); higher = less growth inhibition (more resistant)
KHOS-240S = tested on: KHOS-240S
How it was run: (§1)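 After 72 h with 2.5 µl of compound (compound-plate series 10 mM to 0.0002 mM), triplicate wells of sarcoma cell lines in 384-well plates were read with ATPLite, with viability scaled 1 (full) to 0 (none) and fitted with a four-parameter log-logistic model. The values give the standardised area under the dose-response curve in log-dose space from a modified drexplorer computeAUC. A value of 1 means no response and 0 means full response.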

SYO-1 = tested on: SYO-1
How it was run: as §1

SK-ES-1 = tested on: SK-ES-1
How it was run: as §1

SW1353 = tested on: SW1353
How it was run: as §1

HT1080 = tested on: HT1080
How it was run: as §1

G401 = tested on: G401
How it was run: as §1

KHOS-NP = tested on: KHOS-NP
How it was run: as §1

MES-SA = tested on: MES-SA
How it was run: as §1

SW872 = tested on: SW872
How it was run: as §1

SK-LMS-1 = tested on: SK-LMS-1
How it was run: as §1

RD-ES = tested on: RD-ES
How it was run: as §1

SW684 = tested on: SW684
How it was run: as §1

HS729 = tested on: HS729
How it was run: as §1

RD = tested on: RD
How it was run: as §1

A204 = tested on: A204
How it was run: as §1

SW982 = tested on: SW982
How it was run: as §1

VA-ES-BJ = tested on: VA-ES-BJ
How it was run: as §1

Structure (SMILES)	standardised AUC (KHOS-240S)	standardised AUC (SYO-1)	standardised AUC (SK-ES-1)	standardised AUC (SW1353)	standardised AUC (HT1080)	standardised AUC (G401)	standardised AUC (KHOS-NP)	standardised AUC (MES-SA)	standardised AUC (SW872)	standardised AUC (SK-LMS-1)	standardised AUC (RD-ES)	standardised AUC (SW684)	standardised AUC (HS729)	standardised AUC (RD)	standardised AUC (A204)	standardised AUC (SW982)	standardised AUC (VA-ES-BJ)
CC(=O)c1c(C)c2cnc(Nc3ccc(N4CCNCC4)cn3)nc2n(C2CCCC2)c1=O [PALBOCICLIB]	0.863	0.772	0.721	0.922	0.96	0.903	0.96	0.808	0.887	0.967	0.792	0.928	0.949	0.946	0.806	0.789	0.78
CN(C)C(=O)c1cc2cnc(Nc3ccc(N4CCNCC4)cn3)nc2n1C1CCCC1 [RIBOCICLIB]	0.961	0.86	0.816	0.939	0.993	0.917	0.997	0.94	0.95	0.963	0.865	0.984	0.987	0.946	0.909	0.952	0.903
O=C(/C=C\n1cnc(-c2cc(C(F)(F)F)cc(C(F)(F)F)c2)n1)NNc1cnccn1 [SELINEXOR]	0.612	0.596	0.5	0.822	0.714	0.706	0.655	0.652	0.781	0.642	0.751	0.847	0.773	0.721	0.672	0.649	0.625
Cc1cc(F)c(C(=O)Nc2cccc(-c3nncn3C(C)C)n2)cc1-n1cnc(C2CC2)c1 [SELONSERTIB]	0.977	0.957	0.953	0.999	1	0.969	0.962	0.959	1	0.988	0.985	0.981	0.992	0.995	0.94	1	0.976
Cn1cnc2c(F)c(Nc3ccc(Br)cc3Cl)c(C(=O)NOCCO)cc21 [SELUMETINIB]	0.89	0.902	0.977	0.861	0.816	0.904	0.782	0.919	0.79	0.748	0.986	0.931	0.955	0.784	0.953	0.926	0.887
CO[C@H]1C[C@@H]2CC[C@@H](C)[C@@](O)(O2)C(=O)C(=O)N2CCCC[C@H]2C(=O)O[C@H]([C@H](C)C[C@@H]2CC[C@@H](OC(=O)C(C)(CO)CO)[C@H](OC)C2)CC(=O)[C@H](C)/C=C(\C)[C@@H](O)[C@@H](OC)C(=O)[C@H](C)C[C@H](C)/C=C/C=C/C=C/1C [TEMSIROLIMUS]	0.854	0.81	0.647	0.883	0.94	0.763	0.934	0.511	0.741	0.64	0.754	0.933	0.887	0.731	0.592	0.743	0.588
